Inconclusive results and toxic doses are left out.
Tested on: CD2F1 mice, L1210 leukemia ip, survival T/C
Assay: NCI In Vivo Anticancer Drug Screen. Data for tumor model L1210 Leukemia (intraperitoneal) in CD2F1 (CDF1) mice
Details: endpoint: mean survival time, higher = longer survival
In short: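 Ratio T/C, where T is the treated-group value and C the vehicle-dosed control value, from mice implanted with a transplantable tumor.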

[1] = dose: 100.0 mg/kg/injection, schedule: Q01DX009 (ip), vehicle: saline with Tween-80
[2] = dose: 100.0 mg/kg/injection, schedule: Q04DX003 (ip), vehicle: saline with Tween-80
[3] = dose: 200.0 mg/kg/injection, schedule: Q01DX009 (ip), vehicle: saline with Tween-80
[4] = dose: 200.0 mg/kg/injection, schedule: Q04DX003 (ip), vehicle: saline with Tween-80
[5] = dose: 400.0 mg/kg/injection, schedule: Q01DX009 (ip), vehicle: saline with Tween-80
[6] = dose: 400.0 mg/kg/injection, schedule: Q04DX003 (ip), vehicle: saline with Tween-80
[7] = dose: 6.25 mg/kg/injection, schedule: Q04DX003 (ip), vehicle: saline with Tween-80
[8] = dose: 75.0 mg/kg/injection, schedule: Q01DX001 (ip), vehicle: saline
[9] = dose: 6.25 mg/kg/injection, schedule: Q01DX009 (ip), vehicle: saline with Tween-80
[10] = dose: 12.5 mg/kg/injection, schedule: Q04DX003 (ip), vehicle: saline with Tween-80

For `CN(C)c1ccc(C(=C2C=CC(=[N+](C)C)C=C2)c2ccc(N(C)C)cc2)cc1` (tested in a mixture with another compound), the T/C (dose: 0.15 mg/kg/injection, schedule: Q01DX009 (ip), vehicle: saline with Tween-80) was 110 % of control, the T/C (dose: 0.31 mg/kg/injection, schedule: Q01DX009 (ip), vehicle: saline with Tween-80) was 100 % of control and the T/C (dose: 0.31 mg/kg/injection, schedule: Q01DX009 (ip), vehicle: suspension in saline) was 97 % of control. For the same compound, the T/C (dose: 0.62 mg/kg/injection, schedule: Q01DX009 (ip), vehicle: saline with Tween-80) was 105 % of control, the T/C (dose: 0.62 mg/kg/injection, schedule: Q01DX009 (ip), vehicle: suspension in saline) was 106 % of control and the T/C (dose: 1.25 mg/kg/injection, schedule: Q01DX009 (ip), vehicle: saline with Tween-80) was 113 % of control. For the same compound, the T/C (dose: 1.25 mg/kg/injection, schedule: Q01DX009 (ip), vehicle: suspension in saline) was 101 % of control, the T/C (dose: 2.5 mg/kg/injection, schedule: Q01DX009 (ip), vehicle: saline with Tween-80) was 117 % of control and the T/C (dose: 2.5 mg/kg/injection, schedule: Q01DX009 (ip), vehicle: suspension in saline) was 106 % of control.

In the case of `CC(=O)OC1(c2cc(C(F)(F)F)cc(C(F)(F)F)c2)C2CCC1CC2` (stereo not drawn), the T/C (dose: 12.5 mg/kg/injection, schedule: Q04DX002 (ip), vehicle: saline with Tween-80) was 101 % of control, the T/C (dose: 25.0 mg/kg/injection, schedule: Q04DX002 (ip), vehicle: saline with Tween-80) was 97 % of control and the T/C (dose: 50.0 mg/kg/injection, schedule: Q04DX002 (ip), vehicle: saline with Tween-80) was 97 % of control.

With `COc1ccc(C(C)C(O)c2ccccc2)cc1` (stereo not drawn) the T/C (dose: 100.0 mg/kg/injection, schedule: Q04DX003 (ip), vehicle: saline) was 103 % of control, the T/C (dose: 200.0 mg/kg/injection, schedule: Q04DX003 (ip), vehicle: saline) was 108 % of control and the T/C (dose: 400.0 mg/kg/injection, schedule: Q04DX003 (ip), vehicle: saline) was 102 % of control.

With `Cc1ccc(NC(=O)c2ccccc2Cl)cc1` the T/C [1] was 95 % of control, the T/C [2] was 95 % of control and the T/C [3] was 92 % of control. For the same compound, the T/C [4] was 96 % of control, the T/C [5] was 94 % of control and the T/C [6] was 93 % of control.

In the case of `Cc1cccc(NC(=S)N(C)C)c1`, the T/C [2] was 104 % of control, the T/C [4] was 102 % of control and the T/C [6] was 94 % of control.

In the case of `CC([NH-])CC[NH-].[Cl][Pt+2][Cl]` (stereo not drawn), the T/C [7] was 151 % of control.

In the case of `CCOC(=O)/C(C#N)=N/O`, the T/C [8] was 100 % of control.

With `O=C(O)Cc1c(Cl)cccc1[N+](=O)[O-]` the T/C (dose: 100.0 mg/kg/injection, schedule: Q01DX001 (ip), vehicle: other) was 116 % of control, the T/C (dose: 200.0 mg/kg/injection, schedule: Q01DX001 (ip), vehicle: other) was 101 % of control and the T/C (dose: 400.0 mg/kg/injection, schedule: Q01DX001 (ip), vehicle: other) was 104 % of control.

In the case of `C=C(Br)CNC(=O)Nc1c2ccccc2nc2ccccc12`, the T/C (dose: 25.0 mg/kg/injection, schedule: Q01DX009 (ip), vehicle: Klucel (hydroxypropylcellulose) (HPC)) was 97 % of control, the T/C (dose: 50.0 mg/kg/injection, schedule: Q01DX009 (ip), vehicle: Klucel (hydroxypropylcellulose) (HPC)) was 98 % of control and the T/C (dose: 100.0 mg/kg/injection, schedule: Q01DX009 (ip), vehicle: Klucel (hydroxypropylcellulose) (HPC)) was 97 % of control.

For `C=COCC(C)C` (tested in a mixture with another compound), the T/C (dose: 0.78 mg/kg/injection, schedule: Q01DX009 (ip), vehicle: Klucel (hydroxypropylcellulose) (HPC)) was 93 % of control, the T/C (dose: 1.56 mg/kg/injection, schedule: Q01DX009 (ip), vehicle: Klucel (hydroxypropylcellulose) (HPC)) was 90 % of control and the T/C (dose: 1.56 mg/kg/injection, schedule: Q01DX009 (ip), vehicle: saline with Tween-80) was 86 % of control. For the same compound, the T/C (dose: 1.56 mg/kg/injection, schedule: Q04DX003 (ip), vehicle: other) was 109 % of control, the T/C (dose: 3.12 mg/kg/injection, schedule: Q01DX009 (ip), vehicle: Klucel (hydroxypropylcellulose) (HPC)) was 88 % of control and the T/C (dose: 3.12 mg/kg/injection, schedule: Q04DX003 (ip), vehicle: other) was 91 % of control. The T/C (dose: 3.13 mg/kg/injection, schedule: Q01DX009 (ip), vehicle: saline with Tween-80) was 92 % of control, the T/C (dose: 4.67 mg/kg/injection, schedule: Q01DX009 (ip), vehicle: Klucel (hydroxypropylcellulose) (HPC)) was 98 % of control and the T/C [9] was 94 % of control. For the same compound, the T/C (dose: 7.09 mg/kg/injection, schedule: Q01DX009 (ip), vehicle: Klucel (hydroxypropylcellulose) (HPC)) was 98 % of control, the T/C (dose: 10.6 mg/kg/injection, schedule: Q01DX009 (ip), vehicle: Klucel (hydroxypropylcellulose) (HPC)) was 93 % of control and the T/C [10] was 87 % of control. The T/C (dose: 15.8 mg/kg/injection, schedule: Q01DX009 (ip), vehicle: alcohol) was 96 % of control, the T/C (dose: 18.8 mg/kg/injection, schedule: Q01DX009 (ip), vehicle: saline) was 111 % of control and the T/C (dose: 24.0 mg/kg/injection, schedule: Q01DX009 (ip), vehicle: alcohol) was 88 % of control. For the same compound, the T/C (dose: 35.0 mg/kg/injection, schedule: Q01DX009 (ip), vehicle: alcohol) was 97 % of control, the T/C (dose: 37.5 mg/kg/injection, schedule: Q01DX009 (ip), vehicle: saline) was 111 % of control and the T/C (dose: 100.0 mg/kg/injection, schedule: Q01DX001 (ip), vehicle: saline with Tween-80) was 113 % of control. For the same compound, the T/C (dose: 200.0 mg/kg/injection, schedule: Q01DX001 (ip), vehicle: saline with Tween-80) was 109 % of control and the T/C (dose: 400.0 mg/kg/injection, schedule: Q01DX001 (ip), vehicle: saline with Tween-80) was 95 % of control.

For `C[Si](F)(c1cccc2ccccc12)c1cccc2ccccc12`, the T/C [1] was 93 % of control, the T/C [3] was 98 % of control and the T/C [5] was 96 % of control.

For `CCCCCCCCCCCCNC(=O)C[n+]1cccc(C(=O)Nc2ccccc2)c1`, the T/C [9] was 97 % of control, the T/C [7] was 106 % of control and the T/C (dose: 12.5 mg/kg/injection, schedule: Q01DX009 (ip), vehicle: saline with Tween-80) was 97 % of control. For the same compound, the T/C [10] was 100 % of control and the T/C (dose: 25.0 mg/kg/injection, schedule: Q04DX003 (ip), vehicle: saline with Tween-80) was 106 % of control.

For `[Cl][Pt+2][Cl].[NH-]c1nc(-c2ccccc2)cs1.[NH-]c1nc(-c2ccccc2)cs1`, the T/C (dose: 3.13 mg/kg/injection, schedule: Q04DX003 (ip), vehicle: distilled water + Tween-80) was 101 % of control, the T/C (dose: 6.25 mg/kg/injection, schedule: Q04DX003 (ip), vehicle: distilled water + Tween-80) was 101 % of control and the T/C (dose: 12.5 mg/kg/injection, schedule: Q04DX003 (ip), vehicle: distilled water + Tween-80) was 96 % of control. For the same compound, the T/C (dose: 25.0 mg/kg/injection, schedule: Q04DX003 (ip), vehicle: distilled water + Tween-80) was 102 % of control, the T/C (dose: 50.0 mg/kg/injection, schedule: Q04DX003 (ip), vehicle: distilled water + Tween-80) was 96 % of control and the T/C (dose: 100.0 mg/kg/injection, schedule: Q04DX003 (ip), vehicle: distilled water + Tween-80) was 98 % of control. For the same compound, the T/C (dose: 200.0 mg/kg/injection, schedule: Q04DX003 (ip), vehicle: distilled water + Tween-80) was 98 % of control.

For `CCCCCCCCCCCCCCCCCC(=O)NCCN(CC)CC`, the T/C [8] was 101 % of control.

— PubChem BioAssay AID256 (DTP/NCI, 2004)
